Results as given in the supplement of paper PMC11208160.

Assay: recombinant UMI read abundance after kanamycin selection (control-corrected) (log10(CPM+1)); higher = more efficient recombination; extreme values may be limits of the assay; sequences stand for … in AGTGCAGAGAAAATCGGCCAGTTTTCTCTGCCTGCAGTCCGCATGCCGTGGGACCCCTTGGGTTCTAACCTGTTGCCTAGATTTATGCAGCGGACTGCCTTTCTCCCAAAGTGATAAACCGG…AGGTTGGTTTCACT; site = the 11-nt donor
Outline: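 Counts of recombinant UMIs were reported as log10(CPM+1). Before that, they were converted to CPM, averaged over replicates and scaled using control-derived factors. They came from PCR across the donor–target junction after Escherichia coli carrying the pair library and target plasmid was plated on IPTG (0.07 mM) plus kanamycin, or unselected, in two replicates each.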
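Further: IS621 bridge recombinase in Escherichia coli cells against a fixed T5 target plasmid.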

Row | Sequence | recombinant UMI read abundance (log10)
1 | TAAAGTCCATGGACCGGTTTTCCCGGTAATCCGTATTTGTA (site TAGAGTCCTTA) | 0.358
2 | TAAAGTCCATGGACCGGTTTTCCCGGTAATCCGTATTTGTA (site TATAGTCCTTA) | 0.0492
3 | TAAAGTCCATGGACCGGTTTTCCCGGTAATCCGTATTTGTA (site TCAAGTCCTTA) | 0.0268
4 | TAAAGTCCATGGACCGGTTTTCCCGGTAATCCGTATTTGTA (site TGAAGTCCTTA) | 0.00382
5 | TAAAGTCCATGGACCGGTTTTCCCGGTAATCCGTATTTGTA (site TTAAGTCCTTA) | 0.671
6 | TAAAGTGCATGGACCGGTTTTCCCGGTAATCCGTATTTGTA (site TAAAGTACTTA) | 1.36
7 | TAAAGTGCATGGACCGGTTTTCCCGGTAATCCGTATTTGTA (site TAAAGTCCTTA) | 0.72
8 | TAAAGTGCATGGACCGGTTTTCCCGGTAATCCGTATTTGTA (site TAAAGTGCTTA) | 2.22
9 | TAAAGTGCATGGACCGGTTTTCCCGGTAATCCGTATTTGTA (site TAAAGTTCTTA) | 0
10 | TAAATGACATGGACCGGTTTTCCCGGTAATCCGTATTTGGA (site TAAATGACTTC) | 1.23
11 | TAAATTCCATGGACCGGTTTTCCCGGTAATCCGTATTTGGG (site TAAATTCCTCC) | 0
12 | TAAATTCCATGGACCGGTTTTCCCGGTAATCCGTATTTGTA (site TAAAATCCTTA) | 0.00321
13 | TAAATTCCATGGACCGGTTTTCCCGGTAATCCGTATTTGTA (site TAAACTCCTTA) | 0.00609
14 | TAAATTCCATGGACCGGTTTTCCCGGTAATCCGTATTTGTA (site TAAAGTCCTTA) | 0.471
15 | TAAATTCCATGGACCGGTTTTCCCGGTAATCCGTATTTGTA (site TAAATTCCTTA) | 0.558
16 | TAACAGGCATGGACCGGTTTTCCCGGTAATCCGTATTTGTT (site TAACAGGCTAA) | 1.1
17 | TAACCACCATGGACCGGTTTTCCCGGTAATCCGTATTTGAT (site TAACCACCTAT) | 0.0138
18 | TAACCCGCATGGACCGGTTTTCCCGGTAATCCGTATTTGTG (site TAACCCGCTCA) | 0.00831
19 | TAACGTCCATGGACCGGTTTTCCCGGTAATCCGTATTTGTA (site TAAAGTCCTTA) | 0.571
20 | TAACGTCCATGGACCGGTTTTCCCGGTAATCCGTATTTGTA (site TAACGTCCTTA) | 0.935
21 | TAACGTCCATGGACCGGTTTTCCCGGTAATCCGTATTTGTA (site TAAGGTCCTTA) | 0.0133
22 | TAACGTCCATGGACCGGTTTTCCCGGTAATCCGTATTTGTA (site TAATGTCCTTA) | 0.00898
23 | TAAGACACATGGACCGGTTTTCCCGGTAATCCGTATTTGTT (site TAAGACACTAA) | 1.94
24 | TAAGAGACATGGACCGGTTTTCCCGGTAATCCGTATTTGCG (site TAAGAGACTCG) | 2.41
25 | TAAGAGACATGGACCGGTTTTCCCGGTAATCCGTATTTGCG (site TCAGAGACTCG) | 0.896

Row | Sequence | recombinant UMI read abundance (log10)
26 | TAAGAGACATGGACCGGTTTTCCCGGTAATCCGTATTTGCG (site TGAGAGACTCG) | 0.483
27 | TAAGAGACATGGACCGGTTTTCCCGGTAATCCGTATTTGCG (site TTAGAGACTCG) | 1.14
28 | TAAGATACATGGACCGGTTTTCCCGGTAATCCGTATTTGCT (site TAAGATACTAG) | 2.11
29 | TAAGATGCATGGACCGGTTTTCCCGGTAATCCGTATTTGGG (site ATCCTCTCTGG) | 0
30 | TAAGGAGCATGGACCGGTTTTCCCGGTAATCCGTATTTGGG (site TAAAGAGCTCC) | 0.628
31 | TAAGGAGCATGGACCGGTTTTCCCGGTAATCCGTATTTGGG (site TAACGAGCTCC) | 0
32 | TAAGGAGCATGGACCGGTTTTCCCGGTAATCCGTATTTGGG (site TAAGGAGCTCC) | 0.164
33 | TAAGGAGCATGGACCGGTTTTCCCGGTAATCCGTATTTGGG (site TAATGAGCTCC) | 0.0199
34 | TAAGTCACATGGACCGGTTTTCCCGGTAATCCGTATTTGAC (site TAAGTCACTGT) | 2.35
35 | TAAGTTTCATGGACCGGTTTTCCCGGTAATCCGTATTTGGA (site TAAGTTTCTTC) | 2.13
36 | TAATAAGCATGGACCGGTTTTCCCGGTAATCCGTATTTGGG (site TAATAAGCTCC) | 0.013
37 | TAATAAGCATGGACCGGTTTTCCCGGTAATCCGTATTTGGG (site TAATCAGCTCC) | 0.012
38 | TAATAAGCATGGACCGGTTTTCCCGGTAATCCGTATTTGGG (site TAATGAGCTCC) | 0.00879
39 | TAATAAGCATGGACCGGTTTTCCCGGTAATCCGTATTTGGG (site TAATTAGCTCC) | 0.507
40 | TAATCAGCATGGACCGGTTTTCCCGGTAATCCGTATTTGTC (site TAATCAGCTGA) | 1.93
41 | TAATGAGCATGGACCGGTTTTCCCGGTAATCCGTATTTGAG (site TAATGAGCTCA) | 0.196
42 | TAATGAGCATGGACCGGTTTTCCCGGTAATCCGTATTTGAG (site TAATGAGCTCC) | 0.104
43 | TAATGAGCATGGACCGGTTTTCCCGGTAATCCGTATTTGAG (site TAATGAGCTCG) | 0.341
44 | TAATGAGCATGGACCGGTTTTCCCGGTAATCCGTATTTGAG (site TAATGAGCTCT) | 1.33
45 | TAATGAGCATGGACCGGTTTTCCCGGTAATCCGTATTTGCG (site TAATGAGCTCA) | 0.385
46 | TAATGAGCATGGACCGGTTTTCCCGGTAATCCGTATTTGCG (site TAATGAGCTCC) | 0.00423
47 | TAATGAGCATGGACCGGTTTTCCCGGTAATCCGTATTTGCG (site TAATGAGCTCG) | 1.58
48 | TAATGAGCATGGACCGGTTTTCCCGGTAATCCGTATTTGCG (site TAATGAGCTCT) | 0.626
49 | TAATGAGCATGGACCGGTTTTCCCGGTAATCCGTATTTGGG (site AAATGAGCTCC) | 0.117
50 | TAATGAGCATGGACCGGTTTTCCCGGTAATCCGTATTTGGG (site CAATGAGCTCC) | 0.0721

Row | Sequence | recombinant UMI read abundance (log10)
51 | TAATGAGCATGGACCGGTTTTCCCGGTAATCCGTATTTGGG (site GAATGAGCTCC) | 0.00249
52 | TAATGAGCATGGACCGGTTTTCCCGGTAATCCGTATTTGGG (site TAAAGAGCTCC) | 0.00438
53 | TAATGAGCATGGACCGGTTTTCCCGGTAATCCGTATTTGGG (site TAACGAGCTCC) | 0.0128
54 | TAATGAGCATGGACCGGTTTTCCCGGTAATCCGTATTTGGG (site TAAGGAGCTCC) | 0.0167
55 | TAATGAGCATGGACCGGTTTTCCCGGTAATCCGTATTTGGG (site TAATAAGCTCC) | 0.0171
56 | TAATGAGCATGGACCGGTTTTCCCGGTAATCCGTATTTGGG (site TAATCAGCTCC) | 0.0102
57 | TAATGAGCATGGACCGGTTTTCCCGGTAATCCGTATTTGGG (site TAATGAACTCC) | 0.0101
58 | TAATGAGCATGGACCGGTTTTCCCGGTAATCCGTATTTGGG (site TAATGACCTCC) | 0.00784
59 | TAATGAGCATGGACCGGTTTTCCCGGTAATCCGTATTTGGG (site TAATGAGCTAC) | 0.0203
60 | TAATGAGCATGGACCGGTTTTCCCGGTAATCCGTATTTGGG (site TAATGAGCTCA) | 0.00405
61 | TAATGAGCATGGACCGGTTTTCCCGGTAATCCGTATTTGGG (site TAATGAGCTCC) | 0.304
62 | TAATGAGCATGGACCGGTTTTCCCGGTAATCCGTATTTGGG (site TAATGAGCTCG) | 0.0101
63 | TAATGAGCATGGACCGGTTTTCCCGGTAATCCGTATTTGGG (site TAATGAGCTCT) | 0.0248
64 | TAATGAGCATGGACCGGTTTTCCCGGTAATCCGTATTTGGG (site TAATGAGCTGC) | 0
65 | TAATGAGCATGGACCGGTTTTCCCGGTAATCCGTATTTGGG (site TAATGAGCTTC) | 0.0139
66 | TAATGAGCATGGACCGGTTTTCCCGGTAATCCGTATTTGGG (site TAATGATCTCC) | 0
67 | TAATGAGCATGGACCGGTTTTCCCGGTAATCCGTATTTGGG (site TAATGCGCTCC) | 0.00982
68 | TAATGAGCATGGACCGGTTTTCCCGGTAATCCGTATTTGGG (site TAATGGGCTCC) | 0.0142
69 | TAATGAGCATGGACCGGTTTTCCCGGTAATCCGTATTTGGG (site TAATGTGCTCC) | 0
70 | TAATGAGCATGGACCGGTTTTCCCGGTAATCCGTATTTGGG (site TAATTAGCTCC) | 0.00449
71 | TAATGAGCATGGACCGGTTTTCCCGGTAATCCGTATTTGGG (site TACTGAGCTCC) | 0.00582
72 | TAATGAGCATGGACCGGTTTTCCCGGTAATCCGTATTTGGG (site TAGTGAGCTCC) | 0.0336
73 | TAATGAGCATGGACCGGTTTTCCCGGTAATCCGTATTTGGG (site TATTGAGCTCC) | 0.0136
74 | TAATGAGCATGGACCGGTTTTCCCGGTAATCCGTATTTGGG (site TCATGAGCTCC) | 0.203
75 | TAATGAGCATGGACCGGTTTTCCCGGTAATCCGTATTTGGG (site TGATGAGCTCC) | 0.00873
